Among the data in patent US20060161001A1, “Substituted heterocyclic compounds and methods of use” (Amgen Inc., priority 2004, published 2006) are IC50 values, retold here.

pIC50: −log10 of the molar value.

The test system of this test is LPS induced TNF release. Kind of test: THP1 cell assay (LPS induced TNF release). In kind it is cell-based. As to conditions: Homo sapiens, THP-1; THP1 cells, LPS induced TNF-α secretion, 3 h at 37° C. The protocol: Lipopolysaccharide-Activated THP1 Cell TNF Production Assay
THP1 cells are resuspended in fresh THP1 media (RPMI 1640, 10% heat-inactivated FBS, 1XPGS, 1XNEAA, plus 30 μM OME) at a concentration of 1E6/mL. One hundred microliters of cells per well are plated in a polystyrene 96-well tissue culture. One microgram per mL of bacterial LPS is prepared in THP1 media and is transferred to the wells. Test compounds are dissolved in 100% DMSO and are serially diluted 3-fold in a polypropylene 96-well microtiter plate (drug plate). HI control and LO control wells contain only DMSO. One microliter of test compound from the drug plate followed by 10 μL of LPS are transferred to the cell plate. The treated cells are induced to synthesize and secrete TNF-α at 37° C. for 3 h. Forty microliters of conditioned media are transferred to a 96-well polypropylene plate containing 110 μL of ECL buffer (50 mM Tris-HCl pH 8.0, 100 mM NaCl, 0.05% Tween 20, 0.05% NaN3 and 1% FBS) supplemented with 0.44 nM MAB610 monoclonal Ab (R&D Systems), 0.34 nM ruthenylated AF210NA polyclonal Ab (R&D Systems) and 44 μg/mL sheep anti-mouse M280 Dynabeads (Dynal). After a 2 h incubation at RT with shaking, the reaction is read on the ECL M8 Instrument (IGEN Inc.). A low voltage is applied to the ruthenylated TNF-α immune complexes, which in the presence of TPA (the active component in Origlo), results in a cyclical redox reaction generating light at […]. The amount of secreted TNF-α in the presence of compound compared with that in the presence of DMSO vehicle alone (HI control) is calculated using the formula: % control (POC)=(cpd−average LO)/(average HI−average LO)*100. Data (consisting of POC and inhibitor concentration in μM) is fitted to a 4-parameter equation (y=A+((B−A)/(I+((x/C)ˆD))), where A is the minimum y (POC) value, B is the maximum y (POC), C is the x (cpd concentration) at the point of inflection and D is the slope factor) using a Levenburg-Marquardt non-linear regression algorithm.
The molecule `C[C@@H](Cc1cccc(C(C)(C)N)c1)Nc1nccc(N2CCOc3cnc(-c4ccccc4)nc32)n1` [Example 108, (S)-N-(1-(3-(2-Aminopropan-2-yl)phenyl)propan-2-yl)-4-(2-phenyl-6,7-dihydropyrimido[5,4-b][1,4]oxazin-8-yl)pyrimidin-2-amine] had a negative logarithm of the IC50 (pIC50) not below 4.70. In the case of `C[C@@H](Cc1cccc([C@@H](C)NC(=O)OC(C)(C)C)c1)Nc1nccc(N2CCOc3cnc(-c4ccccc4)nc32)n1` [Example 99, tert-Butyl (R)-1-(3-((S)-2-(4-(2-phenyl-6,7-dihydropyrimido[5,4-b][1,4]oxazin-8-yl)pyrimidin-2-ylamino)propyl)phenyl)ethylcarbamate] it was not below 4.70; in that of `CCOC(=O)c1cc2c(nc1-c1ccccc1)N(c1ccnc(NC3CCN(C(=O)OC(C)(C)C)CC3)n1)CCC2` [Example 74, Ethyl 8-(2-(1-(tert-butoxycarbonyl)piperidin-4-ylamino)pyrimidin-4-yl)-2-phenyl-5,6,7,8-tetrahydro-1,8-naphthyridine-3-carboxylate], not below 4.70; in that of `CC(C)(C)OC(=O)N1CCC(Nc2ncc(F)c(N3CCCc4cnc(-c5ccccc5)cc43)n2)CC1` [Example 24], not below 4.70. On to `CC(C)NC1CCC(Nc2nccc(N3CCCc4cnc(-c5ccccc5)cc43)n2)CC1` [Example 37, (1R,4R)-N^1-Isopropyl-N^4-(4-(7-phenyl-3,4-dihydro-1,6-naphthyridin-1(2H)-yl)-pyrimidin-2-yl)cyclohexane-1,4-diamine], for which the pIC50 is not below 4.70. In the case of `CC(O)c1cc2c(nc1-c1ccccc1)N(c1ccnc(NCCc3ccccc3)n1)CCC2` (stereo not shown) [Example 73, 1-(8-(2-(Phenethylamino)pyrimidin-4-yl)-2-phenyl-5,6,7,8-tetrahydro-1,8-naphthyridin-3-yl)ethanol] it was not below 4.70. The result for `CC(C)NCCC(=O)N1CCC(Nc2nccc(N3CCCc4cnc(-c5ccccc5)cc43)n2)CC1` [Example 14, 3-(Isopropylamino)-1-(4(4-(7-phenyl-3,4-dihydro-1,6-naphthyridin-1(2H)-yl)pyrimidin-2-ylamino)piperdin-1-yl)propan-1-one] reads not below 4.70; that for `CCOC(=O)c1cc2c(nc1-c1ccccc1)N(c1ccnc(NCCc3ccccc3)n1)CCC2` [Example 66, Ethyl 8-(2-(Phenethylamino)pyrimidin-4-yl)-2-phenyl-5,6,7,8-tetrahydro-1,8-naphthyridine-3-carboxylate], not below 4.70.

`CC(C)(N)CNc1nccc(N2CCCc3ccc(-c4ccccc4)nc32)n1` [Example 53, N-(2-Amino-2-methylpropyl)-4-(7-phenyl-3,4-dihydro-1,8-naphthyridin-1(2H)-yl)-pyrimidin-2-amine]: the pIC50 was not below 4.70. `CC(Cc1cccc(CN)c1)Nc1nc(N2CCCc3ccc(-c4ccccc4)nc32)cc(C(F)(F)F)n1` (stereo not shown) [Example 58, N-(1-(3-(Aminomethyl)phenyl)propan-2-yl)-4-(7-phenyl-3,4-dihydro-1,8-naphthyridin-1(2H)-yl)-6-(trifluoromethyl)pyrimidin-2-amine] had a pIC50 not below 4.70.

The molecule `O=C(O)[C@@H](Cc1ccccc1)Nc1nccc(N2CCCc3cnc(-c4ccccc4)cc32)n1` [Example 18, (R)-3-Phenyl-2-(4-(7-phenyl-3,4-dihydro-1,6-naphthyridin-1(2H)-yl)pyrimidin-2-ylamino)propanoic acid] showed a negative logarithm of the IC50 (pIC50) not below 4.70. The result for `CCOC(=O)N1CCC(Nc2nccc(N3CCCc4ccc(-c5ccccc5)nc43)n2)CC1` [Example 87, Ethyl-4-(4-(7-phenyl-3,4-dihydro-1,8-naphthyridin-1(2H)-yl)pyrimidin-2-ylamino)-piperidine-1-carboxylate] reads not below 4.70; that for `CC(Cc1cccc(CO)c1)Nc1nc(N2CCCc3ccc(-c4ccccc4)nc32)cc(C(F)(F)F)n1` (stereo not shown) [Example 57, (3-(2-(4-(7-Phenyl-3,4-dihydro-1,8-naphthyridin-1(2H)-yl)-6-(trifluoromethyl)-pyrimidin-2-ylamino)propyl)phenyl)methanol], not below 4.70; that for `C[C@@H](Cc1cccc(C(C)(C)N)c1)Nc1nccc(N2CCCc3cnc(-c4ccccc4)cc32)n1` [Example 39, (S)-N-(1-(3-(2-Aminopropan-2-yl)phenyl)propan-2-yl)-4-(7-phenyl-3,4-dihydro-1,6-naphthyridin-1(2H)-yl) pyrimidin-2-amine], not below 4.70.

Molecule `N[C@H]1CC[C@H](Nc2nccc(N3CCCc4cc(CO)c(-c5ccccc5)nc43)n2)CC1` [Example 76, (8-(2-((1R,4R)-4-Aminocyclohexylamino)pyrimidin-4-yl)-2-phenyl-5,6,7,8-tetrahydro-1,8-naphthyridin-3-yl)methanol] gave a negative logarithm of the IC50 (pIC50) not below 4.70. In turn, `CC(C)(Cc1ccc(F)cc1)Nc1nccc(N2CCCc3cnc(-c4ccccc4)cc32)n1` [Example 40, N-(1-(4-Fluorophenyl)-2-methylpropan-2-yl)-4-(7-phenyl-3,4-dihydro-1,6-naphthyridin-1(2H)-yl) pyrimidin-2-amine] had a negative-log IC50 (pIC50) not below 4.70. For the molecule `c1ccc(-c2ccc3c(n2)N(c2ccnc(NCCc4cccnc4)n2)CCC3)cc1` [Example 50, 4-(7-Phenyl-3,4-dihydro-1,8-naphthyridin-1(2H)-yl)-N-(2-(pyridin-3-yl)ethyl)-pyrimidin-2-amine], the negative logarithm of the IC50 (pIC50) was not below 4.70. In the case of `O=C(O)C[C@@H](Cc1ccccc1)Nc1nccc(N2CCCc3cnc(-c4ccccc4)cc32)n1` [Example 19, (R)-4-Phenyl-3-(4-(7-phenyl-3,4-dihydro-1,6-naphthyridin-1(2H)-yl)pyrimidin-2-ylamino)butanoic acid] it was not below 4.70; in that of `CC(C)(O)c1cc2c(nc1-c1ccccc1)N(c1ccnc(N[C@H]3CC[C@H](N)CC3)n1)CCC2` [Example 78, 2-(8-(2-((1R,4R)-4-Aminocyclohexylamino)pyrimidin-4-yl)-2-phenyl-5,6,7,8-tetrahydro-1,8-naphthyridin-3-yl)propan-2-ol], not below 4.70. The result for `OCc1cc2c(nc1-c1ccccc1)N(c1ccnc(NCCc3ccccc3)n1)CCC2` [Example 67, (8-(2-(Phenethylamino)pyrimidin-4-yl)-2-phenyl-5,6,7,8-tetrahydro-1,8-naphthyridin-3-yl)methanol] reads not below 4.70. The molecule `Cc1cc(N2CCCc3ccc(-c4ccccc4)nc32)nc(N[C@@H](C)Cc2cccc([C@@H](C)NC(=O)OC(C)(C)C)c2)n1` [Example 61, tert-Butyl (R)-1-(3-((S)-2-(4-methyl-6-(7-phenyl-3,4-dihydro-1,8-naphthyridin-1 (2H)-yl)pyrimidin-2-ylamino)propyl)phenyl)ethylcarbamate] showed a pIC50 not below 4.70.

With `CC(C)NCC(C)(C)Nc1nccc(N2CCCc3cnc(-c4ccccc4)cc32)n1` [Example 43, N-(1-(Isopropylamino)-2-methylpropan-2-yl)-4-(7-phenyl-3,4-dihydro-1,6-naphthyridin-1(2H)-yl) pyrimidin-2-amine], the negative-log IC50 (pIC50) is not below 4.70.

One may read the pIC50 as −log10 of the IC50, conventionally taken in molar units. Lower therefore signals a high IC50.
